According to US20240368135A1 (VERTEX PHARMACEUTICALS INCORPORATED, priority 2021, published 2024):
Like-named read-outs stand apart in the source and are kept apart here.

Target: human NaV 1.8 (Homo sapiens, UniProt Q9Y5Y9)
Assay: E-VIPR assay detecting and measuring NaV inhibition properties
Format: cell-based
Settings: HEK cells expressing truncated human NaV 1.8
Procedure, shortened: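 HEK cells expressing truncated, fully active human NaV1.8, with KIR2.1 BacMam co-transduction, were loaded with CC2-DMPE/DiSBAC6(3) voltage-sensing dyes for 20 min at room temperature. Compounds were tested in 11-point 3-fold dilutions (300 nM top final), optionally with 25% human serum, under electrical stimulation with FRET read-out.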

[1] = no human serum, read-out: IC50 in the E-VIPR Assay

human NaV 1.8, sequence (Q9Y5Y9 126-399 limits assumed): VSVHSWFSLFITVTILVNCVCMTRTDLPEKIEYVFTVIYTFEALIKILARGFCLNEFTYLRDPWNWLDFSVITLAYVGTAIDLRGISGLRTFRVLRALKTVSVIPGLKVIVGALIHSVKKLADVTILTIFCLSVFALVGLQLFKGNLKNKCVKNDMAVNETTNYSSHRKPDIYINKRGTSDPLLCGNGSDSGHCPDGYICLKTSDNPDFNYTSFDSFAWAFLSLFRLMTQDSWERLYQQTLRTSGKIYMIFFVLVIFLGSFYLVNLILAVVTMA
human NaV 1.8, sequence (Q9Y5Y9 660-890 limits assumed): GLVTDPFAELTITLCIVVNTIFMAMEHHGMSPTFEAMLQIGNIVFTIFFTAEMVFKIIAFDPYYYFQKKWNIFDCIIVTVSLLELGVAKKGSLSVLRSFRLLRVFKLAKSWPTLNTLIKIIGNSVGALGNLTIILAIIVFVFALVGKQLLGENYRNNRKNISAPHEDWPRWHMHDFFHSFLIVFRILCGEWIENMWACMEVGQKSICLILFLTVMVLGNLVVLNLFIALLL
human NaV 1.8, sequence (Q9Y5Y9 1148-1722 limits assumed): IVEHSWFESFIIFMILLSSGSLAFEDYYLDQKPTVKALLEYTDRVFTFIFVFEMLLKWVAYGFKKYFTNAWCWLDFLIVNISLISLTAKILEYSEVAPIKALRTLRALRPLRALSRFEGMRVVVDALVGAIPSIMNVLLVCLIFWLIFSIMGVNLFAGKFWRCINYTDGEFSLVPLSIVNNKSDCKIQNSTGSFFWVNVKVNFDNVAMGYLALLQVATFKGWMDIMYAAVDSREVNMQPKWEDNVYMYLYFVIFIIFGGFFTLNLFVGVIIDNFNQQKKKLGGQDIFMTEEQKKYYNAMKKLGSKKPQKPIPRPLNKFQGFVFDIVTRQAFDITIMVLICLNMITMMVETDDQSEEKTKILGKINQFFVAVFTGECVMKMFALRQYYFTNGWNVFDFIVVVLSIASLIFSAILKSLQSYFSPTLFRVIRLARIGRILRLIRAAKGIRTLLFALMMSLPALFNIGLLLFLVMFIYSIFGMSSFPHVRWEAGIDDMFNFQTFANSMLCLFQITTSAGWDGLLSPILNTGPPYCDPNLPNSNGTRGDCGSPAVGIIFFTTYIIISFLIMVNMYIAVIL

| Structure (SMILES) | IC50 [1] [nM] | IC50 (in the presence of human serum (compound numbers followed by *), read-out: IC50 in the E-VIPR Assay, performed in the presence of human serum) [nM] |
| --- | --- | --- |
| Cc1nocc1NC(=O)[C@@H]1O[C@@](C)(C(F)(F)F)[C@@H](C)[C@H]1c1ccc(F)c(F)c1OCCN1CCOCC1 [Compound 586, (2R,3S,4S,5R)-3-(3,4-difluoro-2-(2-morpholinoethoxy)phenyl)-4,5-dimethyl-N-(3-methylisoxazol-4-yl)-5-(trifluoromethyl)tetrahydrofuran-2-carboxamide] | 10 to 100 |  |
| C[C@H]1[C@@H](c2ccc(F)c(F)c2OCCN=S(C)(C)=O)[C@H](C(=O)Nc2ccnc(CO)c2)O[C@@]1(C)C(F)(F)F [Compound 640, (2R,3S,4S,5R)-3-(2-(2-((dimethyl(oxo)-λ^6-sulfaneylidene)amino)ethoxy)-3,4-difluorophenyl)-N-(2-(hydroxymethyl)pyridin-4-yl)-4,5-dimethyl-5-(trifluoromethyl)tetrahydrofuran-2-carboxamide] | 10 to 100 |  |
| COc1c(C2C(C(=O)Nc3cncnc3)OC(C)(C(F)(F)F)C2C)ccc(F)c1F (single isomer, unassigned) [Compound 38, 3-(3,4-difluoro-2-methoxy-phenyl)-4,5-dimethyl-N-pyrimidin-5-yl-5-(trifluoromethyl)tetrahydrofuran-2-carboxamide] | < 10 |  |
| COc1c(C2C(C(=O)Nc3cccc(P(C)(C)=O)c3)OC(C)(C(F)(F)F)C2C)ccc(F)c1F (single isomer, unassigned) [Compound 42, 3-(3,4-difluoro-2-methoxy-phenyl)-N-(3-dimethylphosphorylphenyl)-4,5-dimethyl-5-(trifluoromethyl)tetrahydrofuran-2-carboxamide] | < 10 |  |
| COC[C@@H](O)Cc1cc(NC(=O)[C@@H]2O[C@@](C)(C(F)(F)F)[C@@H](C)[C@H]2c2ccc(F)c(F)c2OC)ccn1 [Compound 369, (2R,3S,4S,5R)-3-(3,4-difluoro-2-methoxyphenyl)-N-(2-((S)-2-hydroxy-3-methoxypropyl)pyridin-4-yl)-4,5-dimethyl-5-(trifluoromethyl)tetrahydrofuran-2-carboxamide] | < 10 |  |
| COc1c([C@H]2[C@H](C(=O)Nc3ccnc(OC(F)F)c3)O[C@@](C)(C(F)(F)F)[C@H]2C)ccc(F)c1F [Compound 189, (2R,3S,4S,5R)-3-(3,4-difluoro-2-methoxyphenyl)-N-(2-(difluoromethoxy)pyridin-4-yl)-4,5-dimethyl-5-(trifluoromethyl)tetrahydrofuran-2-carboxamide] | 10 to 100 |  |
| COCn1cnc(NC(=O)[C@@H]2O[C@@](C)(C(F)(F)F)[C@@H](C)[C@H]2c2ccc(F)c(F)c2OCCO)n1 [Compound 553, (2R,3S,4S,5R)-3-(3,4-difluoro-2-(2-hydroxyethoxy)phenyl)-N-(1-(methoxymethyl)-1H-1,2,4-triazol-3-yl)-4,5-dimethyl-5-(trifluoromethyl)tetrahydrofuran-2-carboxamide] | ≥ 1000 |  |
| COc1c([C@H]2[C@H](C(=O)Nc3ccnc(N4C[C@H]5CC[C@@H](C4=O)N5C)c3)O[C@@](C)(C(F)(F)F)[C@H]2C)ccc(F)c1F (single isomer, unassigned) [Compound 503, rel-(2R*,3S*,4S*,5R*)-3-(3,4-difluoro-2-methoxyphenyl)-4,5-dimethyl-N-(2-((1S,5R)-8-methyl-2-oxo-3,8-diazabicyclo[3.2.1]octan-3-yl)pyridin-4-yl)-5-(trifluoromethyl)tetrahydrofuran-2-carboxamide] | < 10 |  |
| COc1c(C2C(C(=O)Nc3cc[n+]([O-])c(C(O)CO)c3)OC(C)(C(F)(F)F)C2C)ccc(F)c1F (centres unmarked) [Compound 210, 3-(3,4-difluoro-2-methoxy-phenyl)-N-[2-(1,2-dihydroxyethyl)-1-oxido-pyridin-1-ium-4-yl]-4,5-dimethyl-5-(trifluoromethyl)tetrahydrofuran-2-carboxamide] | 10 to 100 |  |
| Cc1nn(C(F)F)cc1NC(=O)[C@@H]1O[C@@](C)(C(F)(F)F)[C@@H](C)[C@H]1c1ccc(F)c(F)c1CCN(C)C [Compound 678, (2R,3S,4S,5R)—N-(1-(difluoromethyl)-3-methyl-1H-pyrazol-4-yl)-3-(2-(2-(dimethylamino)ethyl)-3,4-difluorophenyl)-4,5-dimethyl-5-(trifluoromethyl)tetrahydrofuran-2-carboxamide] | 100 to 1000 |  |
| CNC1(c2cc(NC(=O)[C@@H]3O[C@@](C)(C(F)(F)F)[C@@H](C)[C@H]3c3ccc(F)c(F)c3OC)ccn2)COC1 [Compound 361, (2R,3S,4S,5R)-3-(3,4-difluoro-2-methoxyphenyl)-4,5-dimethyl-N-(2-(3-(methylamino)oxetan-3-yl)pyridin-4-yl)-5-(trifluoromethyl)tetrahydrofuran-2-carboxamide] | < 10 |  |
| COc1c([C@H]2[C@H](C(=O)Nc3cc(CO)nn3C)O[C@@](C)(C(F)(F)F)[C@H]2C)ccc(F)c1F [Compound 20, (2R,3S,4S,5R)-3-(3,4-difluoro-2-methoxy-phenyl)-N-[5-(hydroxymethyl)-2-methyl-pyrazol-3-yl]-4,5-dimethyl-5-(trifluoromethyl)tetrahydrofuran-2-carboxamide] | 10 to 100 |  |
| C[C@H]1[C@@H](c2ccc(F)c(F)c2OC(F)F)[C@H](C(=O)Nc2ccc(CCO)nc2)O[C@@]1(C)C(F)(F)F (single isomer, unassigned) [Compound 460] | 10 to 100 |  |
| CCOc1c([C@H]2[C@H](C(=O)Nc3ccn(C)c(=O)c3)O[C@@](C)(C(F)(F)F)[C@H]2C)ccc(F)c1F (stereo in doubt) [Compound 101, rac-(2R,3S,4S,5R)-3-(2-ethoxy-3,4-difluorophenyl)-4,5-dimethyl-N-(1-methyl-2-oxo-1,2-dihydropyridin-4-yl)-5-(trifluoromethyl)tetrahydrofuran-2-carboxamide] | < 10 |  |
| COc1c([C@@H]2[C@@H](C(=O)Nc3ccnc(N4CCN(C)CC4=O)c3)O[C@](C)(C(F)(F)F)[C@@H]2C)ccc(F)c1C(F)F (single isomer, unassigned) [Compound 163] | 100 to 1000 |  |
| COc1c([C@H]2[C@H](C(=O)Nc3cncc(CO)n3)O[C@@](C)(C(F)(F)F)[C@H]2C)ccc(F)c1F [Compound 382, (2R,3S,4S,5R)-3-(3,4-difluoro-2-methoxyphenyl)-N-(6-(hydroxymethyl)pyrazin-2-yl)-4,5-dimethyl-5-(trifluoromethyl)tetrahydrofuran-2-carboxamide] | 100 to 1000 |  |
| COc1c([C@H]2[C@H](C(=O)Nc3cnc(CCO)nc3)O[C@@](C)(C(F)(F)F)[C@H]2C)ccc(F)c1F [Compound 237, (2R,3S,4S,5R)-3-(3,4-difluoro-2-methoxyphenyl)-N-(2-(2-hydroxyethyl)pyrimidin-5-yl)-4,5-dimethyl-5-(trifluoromethyl)tetrahydrofuran-2-carboxamide] | 10 to 100 |  |
| C[C@H]1[C@@H](c2ccc(F)c(F)c2OC(F)F)[C@H](C(=O)Nc2ccnc(CO)c2)O[C@@]1(C)C(F)(F)F (single isomer, unassigned) [Compound 92] | < 10 |  |
| COCC(C)(C)NCc1cc(NC(=O)[C@@H]2O[C@@](C)(C(F)(F)F)[C@@H](C)[C@H]2c2ccc(F)c(F)c2OC)ccn1 [Compound 410, (2R,3S,4S,5R)-3-(3,4-difluoro-2-methoxyphenyl)-N-(2-(((1-methoxy-2-methylpropan-2-yl)amino)methyl)-pyridin-4-yl)-4,5-dimethyl-5-(trifluoromethyl)-tetrahydrofuran-2-carboxamide] | 10 to 100 |  |
| COc1c(C2C(C(=O)Nc3ccnc(C(O)C(C)O)c3)OC(C)(C(F)(F)F)C2C)ccc(F)c1C (single isomer, unassigned) [Compound 146] |  | ≥ 1000 |
| COc1c([C@@H]2[C@H](C)[C@H](C(C)C)O[C@H]2C(=O)Nc2cccnc2)ccc(F)c1F [Compound 720, (2R,3S,4S,5S)-3-(3,4-difluoro-2-methoxyphenyl)-5-isopropyl-4-methyl-N-(pyridin-3-yl)tetrahydrofuran-2-carboxamide] | 100 to 1000 |  |
| CC(C)Oc1c([C@H]2[C@H](C(=O)Nc3ccnc(S(C)(=N)=O)c3)O[C@@](C)(C(F)(F)F)[C@H]2C)ccc(F)c1F (single isomer, unassigned) [Compound 119] | < 10 |  |
| COc1c([C@H]2[C@H](C(=O)Nc3ccnc(C4COCCN4C)c3)O[C@@](C)(C(F)(F)F)[C@H]2C)ccc(F)c1F (single isomer, unassigned) [Compound 364, rel-(2R*,3S*,4S*,5R*)-3-(3,4-difluoro-2-methoxyphenyl)-4,5-dimethyl-N-(2-(4-methylmorpholin-3-yl)pyridin-4-yl)-5-(trifluoromethyl)tetrahydrofuran-2-carboxamide] | < 10 |  |
| COc1c([C@H]2[C@H](C(=O)Nc3ccc(C(=O)N(C)S(C)(=O)=O)nc3)O[C@@](C)(C(F)(F)F)[C@H]2C)ccc(F)c1F [Compound 376, 5-[[(2R,3S,4S,5R)-3-(3,4-difluoro-2-methoxy-phenyl)-4,5-dimethyl-5-(trifluoromethyl)tetrahydrofuran-2-carbonyl]amino]-N-methyl-N-methylsulfonyl-pyridine-2-carboxamide] | 10 to 100 |  |
| COc1c([C@H]2[C@H](C(=O)Nc3cc(S(C)(=O)=O)nn3C)O[C@@](C)(C(F)(F)F)[C@H]2C)ccc(F)c1F [Compound 211, (2R,3S,4S,5R)-3-(3,4-difluoro-2-methoxyphenyl)-4,5-dimethyl-N-(1-methyl-3-(methylsulfonyl)-1H-pyrazol-5-yl)-5-(trifluoromethyl)tetrahydrofuran-2-carboxamide] | < 10 |  |
| CNS(=O)(=O)c1cc(NC(=O)C2OC(C)(C(F)(F)F)C(C)C2c2ccc(F)c(F)c2OC)ccn1 (single isomer, unassigned) [Compound 455, 3-(3,4-difluoro-2-methoxy-phenyl)-4,5-dimethyl-N-[2-(methylsulfamoyl)-4-pyridyl]-5-(trifluoromethyl)tetrahydrofuran-2-carboxamide] | 100 to 1000 |  |
